Assay results as given in patent US12473344B2, “Chimeric antigen receptor polypeptides and methods of using same” (The Board of Trustees of the Leland Stanford Junior …, priority 2018, dated 2025).

Experiments:
HCV NS3 protease = details: for CAR expression after removal of the protease inhibitor by washing / CAR expression after incubation with protease inhibitor: B7H3 CAR-SMASh
Protocol: (§1) Flow cytometry of samples was performed on an LSR Fortessa (BD Bioscience) and data were analyzed using FlowJo software. B7H3 CARs were detected using B7H3 Fc. GD2 and CD19 CARs were detected by 1A7 and FMC63 anti-idiotype antibody, respectively. CD 22 CARs were detected using biotinylated protein L and APC conjugated streptavidin. FACS plots were gated on live single T cells. Untransduced T cells (“Mock”) were used as controls.
(§2) CAR T cells were incubated in the indicated concentration of drug in T cell culture media (above) until analysis by FACS. Media was changed every 48-72 hours. Removal of drug was achieved by washing CAR T cells in T cell culture media 3 times.

[1] = tested on: markers of T cell exhaustion; experiment: Flow cytometry of activation/exhaustion-associated markers on CAR-SMASh T cells; format: cell-based, human
Source text: Asunaprevir (ASV), danoprevir (DPV), simeprevir (SPV), and grazoprevir (GPV) were purchased from ApexBio. Cell surface markers were stained with mouse monoclonal antibodies targeting PD-1 (PE-Cy7, eBioscience), LAG3 (PE, eBioscience), Tim-3 (BV 510, BioLegend), and B7-H3 (PE, R&D Systems). CAR molecules were stained with recombinant B7-H3 Fc (R&D Systems), protein L (Pierce Protein Biology), 1A7 anti-idiotype antibody, or FMC63 anti-idiotype antibody 136.20.1 conjugated in house using DyLight 650 Antibody Labeling Kit (Thermo Fisher). T cells were cultured in AIM V (Thermo Fisher) supplemented with 5% fetal bovine serum (Gibco), 100 U/mL rhIL-2 (PeproTech), 2 mM L-glutamine, 10 mM HEPES, 100 U/mL penicillin, and […] streptomycin (Invitrogen). Cancer cell lines were cultured in RPMI (Thermo Fisher) supplemented with 10% fetal bovine serum, 2 mM L-glutamine, 10 mM HEPES, 100 U/mL penicillin, and […] streptomycin.
as §1, §2

T cells = experiment: T cell aggregation during in vitro culture (microscope images); format: cell-based; details: CAR-SMASh T cells incubated with inhibitor
[2] = tested on: B7H3-expressing Nalm6 GFP tumor cells; experiment: Co-culture killing assay (tumor GFP fluorescence); format: cell-based; details: for cytotoxicity of B7H3 CAR-SMASh T cells incubated with drug prior to co-culture: 3 μM, various amounts of time (from 24 h)
Protocol: Cancer cell fluorescence was monitored by time-lapse microscopy. Total integrated fluorescence intensity was calculated and plotted as a function of time. […] Cytokine in culture supernatant was quantified using the Human IL-2 ELISA MAX™ and Human IFN-γ ELISA MAX™ Deluxe kits (BioLegend).

[3] = tested on: B7H3 (low)-expressing Nalm6 GFP tumor cells; experiment: Co-culture killing assay, low antigen (tumor GFP fluorescence); format: cell-based; details: 3 μM, various amounts of time, B7H3 (low) targets
Protocol: (§3) CAR T cells were co-cultured with indicated cancer cell lines, engineered to constitutively express green fluorescent protein, on day 10 post activation in 96-well plates at a ratio of 1:1 (50,000 cells each). Cancer cell fluorescence was monitored by time-lapse microscopy. Total integrated fluorescence intensity was calculated and plotted as a function of time. Co-culture supernatant was harvested after 24 hours of co-culture and analyzed for the presence of cytokine. Cytokine in culture supernatant was quantified using the Human IL-2 ELISA MAX™ and Human IFN-γ ELISA MAX™ Deluxe kits (BioLegend).

[4] = tested on: B7H3-expressing Nalm6 GFP; experiment: Cytokine in co-culture supernatant (IFN-γ ELISA); format: cell-based
Protocol: as §3

[5] = tested on: Nalm6 leukemia cells expressing B7H3 and firefly luciferase; experiment: In vivo Nalm6 leukemia model, bioluminescence imaging; set-up: species or system NSG mice; details: 50 mg/kg grazoprevir+25 mg/kg ritonavir three times per day by oral gavage
Protocol: NSG mice were infused with 10^6 Nalm6 leukemia cells expressing B7H3 and firefly luciferase. Four days later, mice were infused with 8×10^6 B7H3-BBz-SMASh CART cells or mock untransduced control cells. Mice that received B7H3-BBz-SMASh CAR T cells were either administered drug (50 mg/kg grazoprevir+25 mg/kg ritonavir) or vehicle (50% polyethylene glycol 300) three times per day by oral gavage. Bioluminescence imaging was used to follow the expansion of the firefly luciferase-expressing Nalm6 cells.
Assessed in this example was whether B7H3 CAR-nanoluciferase-SMASh CAR-T cell activity could be controlled in vivo against Nalm6 leukemia cells. NSG mice were infused with 10^6 Nalm6 leukemia cells expressing B7H3 antigen and firefly luciferase by tail vein injection. Four days later, mice were infused with 8×10^6 B7H3 CAR-nanoluciferase-SMASh CAR-T cells or mock un-transduced control T cells by tail vein injection. Mice in the “CAR OFF” group were administered 50 mg/kg grazoprevir+25 mg/kg ritonavir (a pharmacokinetic enhancer of grazoprevir) two to three times per day by oral gavage. Bioluminescence imaging was used to follow the expansion of the firefly luciferase-expressing Nalm6 cells.

[6] = tested on: CAR expression on T cells in vivo; experiment: In vivo CAR expression by nanoluciferase imaging; details: MED8A mice, 50 mg/kg grazoprevir+25 mg/kg ritonavir two to three times per day by oral gavage
Protocol: In a further study, real-time expression of a C-terminal nanoluciferase (nLuc) domain-containing CAR was monitored in vivo by nanoluciferase-based imaging.
Next, in vivo CAR expression in the mice described in FIG. 27 was assessed by nanoluciferase imaging. Mice were injected with 200 μL of Nano-Glo substrate that was diluted 40× in PBS. After a 6-minute incubation period, the mice were imaged on an IVIS Spectrum imager.

[7] = tested on: GFP-labeled tumor cells expressing cognate antigen; experiment: Co-culture killing assay of several CAR-SMASh T cells in presence of drug; format: cell-based; details: 3 μM asunaprevir
Protocol: as §3

[8] = loss of CAR expression and exhaustion markers (FIG. 6, FIG. 9)

In the case of C=C[C@@H]1C[C@]1(NC(=O)[C@@H]1C[C@@H](Oc2ncc(OC)c3ccc(Cl)cc23)CN1C(=O)[C@@H](NC(=O)OC(C)(C)C)C(C)(C)C)C(=O)NS(=O)(=O)C1CC1 [asunaprevir, Asunaprevir], the “CD19 CAR-SMASh expression after incubation with protease inhibitor” value (HCV NS3 protease; 3 μM, various amounts of time) is reported as “decrease in CD19 CAR-SMASh expression”, the “CD22 CAR-SMASh expression after incubation with protease inhibitor” value (HCV NS3 protease; 3 μM, various amounts of time) is reported as “decrease in CD22 CAR-SMASh expression” and the “GD2 CAR-SMASh expression after incubation with protease inhibitor” value (HCV NS3 protease; 3 μM, various amounts of time) is reported as “decrease in GD2 CAR-SMASh expression”. For the same compound, the “CAR expression after removal of the protease inhibitor by washing” value (HCV NS3 protease) was “recovery of CAR expression”, the “CAR expression after incubation with protease inhibitor” value (HCV NS3 protease; 3 μM, various amounts of time) was “decrease in CAR expression” and the “time to full CAR re-expression after removal of drug” value (HCV NS3 protease; B7H3 SMASh-CAR T cells) was at most 72 h. For the same compound, the “time at which reduction in CAR expression was maximal” value (HCV NS3 protease; B7H3 SMASh-CAR T cells, 3 μM) was 96 h, the “time within which reduction in CAR expression occurred” value (HCV NS3 protease; B7H3 SMASh-CAR T cells, 3 μM) was at most 24 h and the “reduction of CAR expression” value (HCV NS3 protease; B7H3 SMASh-CAR T cells, ex vivo, 3 μM (FIG. 4)) was “greater than 90%”. The “CAR re-expression after removal of drug” value (HCV NS3 protease; B7H3 SMASh-CAR T cells, within 24 h of removal) was “approximately 1.5 log”, the “expression of activation/exhaustion markers” value ([1]; CAR-SMASh T cells, 3 μM) was “reduces expression of activation/exhaustion markers” and the “relationship between inhibitor and expression of CAR molecules and activation/exhaustion-associated markers” value ([1]; FIG. 9) was “dose-dependent relationship”. The “concentration at which maximal effect was observed” value [1, 8] was 1 µM, the “concentration at which near maximal effect was observed” value [1, 8] was 0.3 µM and the “T cell aggregation during in vitro culture” value (T cells) was “resistant to aggregation”. For the same compound, the “cytotoxicity of B7H3 CAR-SMASh T cells incubated with drug prior to co-culture” value (“cytotoxicity … with drug prior to co-culture” for short) [2] was “reduced cytotoxicity”, the “cytotoxicity … with drug prior to co-culture” value ([2]; listed as asumaprevir) was “significant reduction in killing” and the “cytotoxicity of B7H3 CAR-SMASh T cells after drug removal prior to co-culture” value ([2]; drug removed for various amounts of time) was “potent killing of tumor targets indistinguishable from constitutively expressed, non-regulated CAR T cells”. The “cytotoxicity … with drug prior to co-culture” value [3] was “reduced cytotoxicity”, the “time to restoration of interferon production after removal” value [4] was at most 24 h and the “interferon production in response to antigen expressing targets” value ([4]; drug-induced inhibition of CAR expression) was “very low levels”.
For C=C[C@@H]1C[C@]1(NC(=O)[C@@H]1C[C@@H]2CN1C(=O)[C@H](C(C)(C)C)NC(=O)O[C@@H]1C[C@H]1CCCCCc1nc3ccc(OC)cc3nc1O2)C(=O)NS(=O)(=O)C1CC1.O [grazoprevir], the “cytotoxic capacity of B7H3-BBz-SMASh CAR T cells in vivo” value [5] was “dramatically reduces the cytotoxic capacity” and the “in vivo CAR expression (nanoluciferase imaging)” value [6] was “diminished”.
For COc1ccc2c(O[C@@H]3C[C@H]4C(=O)N[C@]5(C(=O)NS(=O)(=O)C6CC6)C[C@H]5/C=C\CCCCN(C)C(=O)[C@@H]4C3)cc(-c3nc(C(C)C)cs3)nc2c1C [simeprevir], the “CAR expression after removal of the protease inhibitor by washing” value (HCV NS3 protease) was “recovery of CAR expression” and the “CAR expression after incubation with protease inhibitor” value (HCV NS3 protease; 3 μM, various amounts of time) was “decrease in CAR expression”.
With “GD2 CAR-SMASh: GD2 scFv (14G2A) CAR with 4-1BB, CD3 zeta and C-terminal SMASh tag (SEQ ID NO: 11)” the “cytotoxicity against target cells in the presence of drug (off state)” value [7] was “significant cytotoxicity”.
